Activity calls are given as the source filed them.
Columns and labels:
Beta-galactosidase = Beta-galactosidase (Escherichia coli, UniProt Q8VNN2); assay: PubChem AID 485352; type: functional
[1] = target: T1, Type-1 angiotensin II receptor (Homo sapiens, UniProt P30556); assay: antagonism of angiotensin II type 1 receptor – cell-based, uHTS hits, selectivity assay for APJ receptor antagonist project, dose response (AID 463214); type: functional;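 further: antagonist potency against angiotensin II stimulated AT1 response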
T1 sequence (P30556 whole entry): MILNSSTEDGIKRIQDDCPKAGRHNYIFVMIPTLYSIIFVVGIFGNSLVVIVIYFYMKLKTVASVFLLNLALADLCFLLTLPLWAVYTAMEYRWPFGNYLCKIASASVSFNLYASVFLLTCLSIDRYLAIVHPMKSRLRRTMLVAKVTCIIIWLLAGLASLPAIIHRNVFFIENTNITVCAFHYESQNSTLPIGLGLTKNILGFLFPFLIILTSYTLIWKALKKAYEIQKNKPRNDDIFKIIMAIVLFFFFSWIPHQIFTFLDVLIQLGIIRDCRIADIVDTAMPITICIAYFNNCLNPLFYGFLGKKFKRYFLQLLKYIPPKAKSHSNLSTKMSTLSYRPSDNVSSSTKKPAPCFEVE

HEK293 = assay: EBV LMP1 TES2 canonical NF-kB signalling blockers – cell-based, HEK293, luciferase, cherry-pick, dose response (AID 588343); type: functional; conditions: Homo sapiens
[2] = NIH-3T3 fibroblast cytotoxicity, dose response, cytotoxicity control, cell-based, fluorescence, Alamar Blue, secondary assay (AID 2327); type: functional;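 further: NIH-3T3 mouse fibroblasts cultured with fluconazole at 8 µg/mL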
Streptococcus = assay: GAS UMAA2166 growth inhibition – luminescence, BacTiterGlo, counter-screen for streptokinase expression inhibitor project, dose response (AID 1915); type: functional, organism-based;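 further: potency for reduction of bacterial viability or growth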
[3] = target: T2, Microphthalmia-associated transcription factor (Homo sapiens, UniProt O75030); assay: reducers of TRPM1 reporter luminescence, concentration series – cell-based, SK-MEL-5, cherry-picked, set 3, MITF inhibitor project, dose response (AID 493073); type: functional;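 further: SK-MEL-5 melanoma cells with luciferase driven by the MITF target TRPM1 promoter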
T2 sequence (O75030 whole entry): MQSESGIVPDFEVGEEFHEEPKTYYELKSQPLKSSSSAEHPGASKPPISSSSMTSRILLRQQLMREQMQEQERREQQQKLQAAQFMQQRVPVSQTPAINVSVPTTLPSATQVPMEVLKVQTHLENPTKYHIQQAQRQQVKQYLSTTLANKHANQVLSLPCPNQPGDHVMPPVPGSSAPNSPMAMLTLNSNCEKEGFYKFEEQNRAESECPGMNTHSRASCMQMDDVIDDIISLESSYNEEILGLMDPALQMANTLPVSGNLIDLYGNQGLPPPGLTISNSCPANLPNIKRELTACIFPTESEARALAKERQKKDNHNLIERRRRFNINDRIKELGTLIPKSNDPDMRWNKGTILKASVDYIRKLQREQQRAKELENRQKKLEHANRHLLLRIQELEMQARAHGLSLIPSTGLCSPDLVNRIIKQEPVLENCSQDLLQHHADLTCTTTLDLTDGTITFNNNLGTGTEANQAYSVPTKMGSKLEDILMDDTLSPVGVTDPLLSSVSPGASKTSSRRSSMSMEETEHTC

H9c2 = assay: cells; type: functional, cell-based; conditions: Rattus norvegicus, H9c2, Myocardium;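 further: confirmatory concentration-response retest of ultra-high-throughput screening hits for modulation of myocardial damage; cell death induced by hydrogen peroxide oxidative stress; compound pretreatment for 60 min then peroxide exposure for 2 h; potency is for protecting the cells against peroxide damage rather than for killing them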
[4] = fluconazole-exposed Candida albicans growth modulators – fluorescence, retest, confirmation (AID 2467); type: functional, cell-based
[5] = system: Streptococcus sp. 'group A'; assay: Streptococcus pyogenes SK(-)GAS viability under kanamycin – luminescence, BacTiterGlo, confirmation, counter-screen for streptokinase expression inhibitor project, dose response (AID 1900); type: functional, organism-based; conditions: read-out: EC50
CAAX prenyl protease 2 = target: T3, CAAX prenyl protease 2 (Homo sapiens, UniProt Q9Y256); assay: inhibition of Ras-converting CAAX protease Rce1 – biochemical, yeast membranes, quenched-peptide fluorescence, cherry-pick, dose response (AID 588849)
T3 sequence (Q9Y256 whole entry): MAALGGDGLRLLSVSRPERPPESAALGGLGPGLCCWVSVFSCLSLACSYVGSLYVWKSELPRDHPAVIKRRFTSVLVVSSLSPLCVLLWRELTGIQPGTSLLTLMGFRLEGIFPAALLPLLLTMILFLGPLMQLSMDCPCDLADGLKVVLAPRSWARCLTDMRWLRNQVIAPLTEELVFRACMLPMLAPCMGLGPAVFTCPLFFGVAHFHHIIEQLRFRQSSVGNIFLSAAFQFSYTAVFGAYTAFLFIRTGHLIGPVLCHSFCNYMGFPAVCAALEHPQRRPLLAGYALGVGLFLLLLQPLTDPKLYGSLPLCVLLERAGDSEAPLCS

Trypsin = Trypsin (Sus scrofa, UniProt P00761); assay: trypsin protease activity blockade – biochemical, quenched peptide fluorescence, cherry-pick, selectivity assay for Rce1 protease inhibitor project, dose response (AID 488789)
[6] = luciferase reporter signal suppression in cells – H4 neuroglioma cells, luminescence, dose response (AID 1990); type: functional, cell-based
Vero [7] = assay: cells; type: functional; conditions: Chlorocebus sabaeus
Vero [8] = assay: mammalian cell viability reduction – secondary assay, cytotoxicity control for West Nile virus antiviral project, dose response (AID 1650); type: functional, Chlorocebus sabaeus
[9] = Luminescence Cell-Based Dose Response HTS to Identify Inhibitors of 5'UTR Stem-Loop Driven Prion Protein mRNA Translation in H4 Neuroglioblastoma Cells. [Related pubchem assays: 1827 (Project Summary), 1813 (Primary HTS)]; type: functional
[10] = alpha-synuclein stem-loop luciferase translation blockers – H4 neuroglioma cells, luminescence, confirmation (AID 1988); type: functional, cell-based
BJ = assay: growth inhibition of engineered Ras-driven BJ cells – cell-based, alamar blue fluorescence, cherrypicked samples, dose response (AID 2631); type: functional; conditions: Homo sapiens;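 further: confirmatory dose-response assay in RAS-dependent BJ fibroblasts engineered with TERT, LT and ST, with cytotoxicity read by fluorescence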
Vero [11] = assay: cells; type: functional, cell-based; conditions: Chlorocebus sabaeus
Paired box protein Pax-8 = Paired box protein Pax-8 (Homo sapiens, UniProt Q06710); assay: PAX8 transcriptional activity inhibition in RMG-I – RMG-I cells, luciferase, cherry-pick, dose response (AID 687027); type: functional, cell-based;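 further: luciferase reporter driven by Pax8 target thyroperoxidase promoter measured by SteadyGlo luminescence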
[12] = target: T4, Heat shock factor protein 1 (Mus musculus, UniProt P38532); assay: enhancement of HSF1-driven luciferase signal – cell-based, NIH3T3, luminescence, dose retest, confirmation (AID 435004); type: functional;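 further: stress induced by proteasome inhibitor MG132 added 30 min after compound; luciferase reporter driven by HSF1 response element in NIH3T3 cells; actives raise luminescence as potentiators of the MG132 stress response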
T4 sequence (P38532 whole entry): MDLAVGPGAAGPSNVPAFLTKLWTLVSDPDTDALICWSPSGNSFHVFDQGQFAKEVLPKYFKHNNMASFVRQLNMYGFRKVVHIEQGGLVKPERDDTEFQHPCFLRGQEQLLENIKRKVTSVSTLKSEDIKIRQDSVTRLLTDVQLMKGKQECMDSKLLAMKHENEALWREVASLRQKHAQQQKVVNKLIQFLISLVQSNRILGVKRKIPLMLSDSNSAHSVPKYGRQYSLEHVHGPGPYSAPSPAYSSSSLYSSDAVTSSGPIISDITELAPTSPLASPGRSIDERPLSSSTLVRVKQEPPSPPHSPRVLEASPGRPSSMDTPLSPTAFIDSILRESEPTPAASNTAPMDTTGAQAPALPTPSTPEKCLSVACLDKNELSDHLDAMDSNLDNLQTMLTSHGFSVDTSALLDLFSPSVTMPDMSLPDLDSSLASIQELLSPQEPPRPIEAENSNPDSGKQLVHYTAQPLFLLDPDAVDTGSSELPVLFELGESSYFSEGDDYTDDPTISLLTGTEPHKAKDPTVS

Cytochrome P450 3A4 = Cytochrome P450 3A4 (Homo sapiens, UniProt P08684);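 further: CYP3A4 tested as one member of a cytochrome P450 panel screen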
Cytochrome P450 1A2 = target: T5, Cytochrome P450 1A2 (Homo sapiens, UniProt P05177);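 further: PubChem cytochrome P450 panel assay, CYP1A2 panel member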
T5 sequence (P05177 whole entry): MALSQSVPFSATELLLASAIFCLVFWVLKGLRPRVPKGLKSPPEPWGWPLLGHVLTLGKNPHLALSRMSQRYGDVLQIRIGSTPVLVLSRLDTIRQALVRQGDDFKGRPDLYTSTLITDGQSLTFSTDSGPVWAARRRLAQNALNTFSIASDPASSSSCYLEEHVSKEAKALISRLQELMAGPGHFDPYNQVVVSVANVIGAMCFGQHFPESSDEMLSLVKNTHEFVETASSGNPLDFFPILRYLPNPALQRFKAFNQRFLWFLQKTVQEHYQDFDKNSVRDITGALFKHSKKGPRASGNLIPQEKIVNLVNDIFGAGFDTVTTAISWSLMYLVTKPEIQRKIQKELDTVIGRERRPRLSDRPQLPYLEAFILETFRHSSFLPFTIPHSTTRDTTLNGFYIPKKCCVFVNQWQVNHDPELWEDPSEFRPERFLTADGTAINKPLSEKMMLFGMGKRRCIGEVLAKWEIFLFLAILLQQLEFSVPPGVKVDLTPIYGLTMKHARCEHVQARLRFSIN

Cytochrome P450 2C9 = Cytochrome P450 2C9 (Homo sapiens, UniProt P11712)
Chain of Cytochrome P450 2C9 (P11712 whole entry): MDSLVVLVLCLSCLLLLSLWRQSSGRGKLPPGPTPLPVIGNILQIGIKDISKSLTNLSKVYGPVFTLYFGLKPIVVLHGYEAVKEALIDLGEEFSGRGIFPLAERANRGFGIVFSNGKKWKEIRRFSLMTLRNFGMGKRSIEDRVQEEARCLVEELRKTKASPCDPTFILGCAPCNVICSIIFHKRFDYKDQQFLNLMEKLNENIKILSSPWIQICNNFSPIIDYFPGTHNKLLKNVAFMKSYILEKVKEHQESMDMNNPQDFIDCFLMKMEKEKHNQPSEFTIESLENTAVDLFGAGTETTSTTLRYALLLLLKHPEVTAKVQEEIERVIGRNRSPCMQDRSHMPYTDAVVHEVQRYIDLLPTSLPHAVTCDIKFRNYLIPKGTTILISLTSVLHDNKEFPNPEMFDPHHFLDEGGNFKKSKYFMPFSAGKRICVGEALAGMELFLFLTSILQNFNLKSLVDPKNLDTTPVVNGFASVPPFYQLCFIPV

Chain of Beta-galactosidase (Q8VNN2 whole entry): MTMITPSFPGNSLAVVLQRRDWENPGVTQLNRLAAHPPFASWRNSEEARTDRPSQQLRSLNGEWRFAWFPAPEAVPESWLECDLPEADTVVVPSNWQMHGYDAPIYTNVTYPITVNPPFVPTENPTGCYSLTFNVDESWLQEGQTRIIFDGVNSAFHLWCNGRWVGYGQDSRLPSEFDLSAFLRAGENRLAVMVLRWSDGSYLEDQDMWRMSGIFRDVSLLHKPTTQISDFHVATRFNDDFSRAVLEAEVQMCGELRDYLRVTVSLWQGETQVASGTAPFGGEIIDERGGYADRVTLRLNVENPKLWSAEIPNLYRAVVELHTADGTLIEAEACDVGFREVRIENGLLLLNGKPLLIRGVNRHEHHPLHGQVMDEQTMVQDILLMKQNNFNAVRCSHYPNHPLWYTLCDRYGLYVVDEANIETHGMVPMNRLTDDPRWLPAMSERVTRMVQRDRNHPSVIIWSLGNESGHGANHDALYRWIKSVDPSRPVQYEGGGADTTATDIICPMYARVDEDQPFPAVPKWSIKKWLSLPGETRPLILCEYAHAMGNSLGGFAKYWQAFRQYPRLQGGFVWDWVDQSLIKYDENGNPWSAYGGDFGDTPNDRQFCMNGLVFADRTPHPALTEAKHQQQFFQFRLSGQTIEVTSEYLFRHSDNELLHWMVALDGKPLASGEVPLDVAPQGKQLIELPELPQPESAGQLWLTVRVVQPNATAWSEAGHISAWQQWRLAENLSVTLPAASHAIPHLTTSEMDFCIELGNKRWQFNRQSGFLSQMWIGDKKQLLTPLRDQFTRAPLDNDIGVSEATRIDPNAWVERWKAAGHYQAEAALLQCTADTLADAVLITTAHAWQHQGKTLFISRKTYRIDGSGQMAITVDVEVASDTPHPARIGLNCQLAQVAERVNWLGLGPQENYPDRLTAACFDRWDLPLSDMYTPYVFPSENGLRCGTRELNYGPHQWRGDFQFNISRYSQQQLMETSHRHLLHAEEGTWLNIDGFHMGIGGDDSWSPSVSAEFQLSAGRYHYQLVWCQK
Chain of Cytochrome P450 3A4 (P08684 whole entry): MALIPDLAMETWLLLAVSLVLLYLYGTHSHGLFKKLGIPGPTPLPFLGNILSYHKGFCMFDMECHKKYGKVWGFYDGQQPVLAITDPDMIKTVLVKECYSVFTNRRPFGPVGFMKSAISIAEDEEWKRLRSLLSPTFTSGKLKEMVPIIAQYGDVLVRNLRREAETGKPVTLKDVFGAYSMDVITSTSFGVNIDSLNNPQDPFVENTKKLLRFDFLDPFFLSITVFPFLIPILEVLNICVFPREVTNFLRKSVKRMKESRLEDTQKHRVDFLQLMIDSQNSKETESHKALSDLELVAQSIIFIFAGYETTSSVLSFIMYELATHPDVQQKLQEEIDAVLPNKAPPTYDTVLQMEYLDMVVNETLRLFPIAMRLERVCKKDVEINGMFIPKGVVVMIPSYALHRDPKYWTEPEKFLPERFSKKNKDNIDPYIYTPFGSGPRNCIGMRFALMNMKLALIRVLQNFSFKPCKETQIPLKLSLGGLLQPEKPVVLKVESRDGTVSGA
Chain of Trypsin (P00761 whole entry): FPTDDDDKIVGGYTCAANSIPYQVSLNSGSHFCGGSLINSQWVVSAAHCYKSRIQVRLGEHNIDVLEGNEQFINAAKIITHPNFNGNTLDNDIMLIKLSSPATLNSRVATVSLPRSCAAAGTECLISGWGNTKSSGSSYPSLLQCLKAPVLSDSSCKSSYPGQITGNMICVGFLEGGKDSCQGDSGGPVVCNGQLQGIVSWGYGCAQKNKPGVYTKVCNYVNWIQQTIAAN
Chain of Paired box protein Pax-8 (Q06710 whole entry): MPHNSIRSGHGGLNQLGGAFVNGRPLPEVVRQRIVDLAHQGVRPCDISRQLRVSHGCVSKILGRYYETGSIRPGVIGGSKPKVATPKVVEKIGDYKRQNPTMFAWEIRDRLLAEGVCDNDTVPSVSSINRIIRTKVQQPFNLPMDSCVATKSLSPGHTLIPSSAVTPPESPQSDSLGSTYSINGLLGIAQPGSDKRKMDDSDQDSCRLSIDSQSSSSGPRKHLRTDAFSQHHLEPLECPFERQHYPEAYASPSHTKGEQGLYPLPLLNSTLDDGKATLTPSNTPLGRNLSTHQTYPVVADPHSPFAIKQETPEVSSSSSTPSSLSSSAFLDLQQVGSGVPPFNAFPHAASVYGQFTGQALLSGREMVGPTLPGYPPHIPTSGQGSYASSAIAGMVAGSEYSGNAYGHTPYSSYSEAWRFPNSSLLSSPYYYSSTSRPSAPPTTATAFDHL

In the case of O=C(COc1ccccc1)OCC(=O)c1ccc(S(=O)(=O)N2CCCCC2)cc1, the EC50 (Beta-galactosidase) is reported as > 40 µM (inactive) and the IC50 [1] is reported as 16.9 µM (active).

With CCOc1ccccc1C(=O)N[C@H](C(=O)OCc1cc([N+](=O)[O-])cc2c1OCOC2)C(C)C the AC50 (HEK293) was 183 µM (active).

For Cc1cc(C)c2ccc(N)nc2c1O, the EC50 [2] was > 150 µM (inconclusive), the EC50 (Streptococcus) was 9.09 µM (active) and the EC50 (Beta-galactosidase) was > 40 µM (inactive). For the same compound, the AC50 [3] was 9.58 µM (active), the IC50 (H9c2) was > 79 µM (inactive) and the EC50 [4] was > 38 µM (not active). The IC50 [1] was 13.7 µM (active) and the EC50 [5] was 3.15 µM (active).

With CCN1CCN(Cc2c(O)ccc3c(=O)c(-c4ccccc4OC)coc23)CC1 the AC50 (CAAX prenyl protease 2) was 5.2 µM (active) and the AC50 (Trypsin) was 16 µM (active).

With O=C(CCC(=O)OCC(=O)c1cccc([N+](=O)[O-])c1)Nc1ccccc1Cl the EC50 (Beta-galactosidase) was > 40 µM (inactive) and the IC50 [1] was 15 µM (active).

With C[C@H]1O[C@@H](O[C@H]2[C@@H](O)C[C@H](O[C@H]3[C@@H](O)C[C@H](O[C@H]4CC[C@@]5(C)[C@H](CC[C@@H]6[C@@H]5C[C@@H](O)[C@]5(C)[C@@H](C7=CC(=O)OC7)CC[C@]65O)C4)O[C@@H]3C)O[C@@H]2C)C[C@H](O)[C@@H]1O [DIGOXIN] the EC50 [6] was < 100 nM (active), the CC50 (Vero [7]) was 0.39 µM (active) and the CC50 (Vero [8]) was 370 nM (active). For the same compound, the CC50 (Vero [8]; Chlorocebus sabaeus, Vero) was 300 nM (active), the EC50 [9] was < 100 nM (active) and the EC50 [10] was < 100 nM (active). For the same compound, the EC50 (BJ) was < 104 nM (active), the IC50 (Vero [11]) was < 0.05 µM (active) and the AC50 (Paired box protein Pax-8) was 414 nM (active).

With COc1cc2c(cc1OC)C(CCc1ccccc1)=NCC2 the EC50 [12] was > 260 µM (inactive), the AC50 (CAAX prenyl protease 2) was 6.03 µM (active) and the AC50 (Trypsin) was 9.41 µM (active).

In the case of CCN(CC)S(=O)(=O)c1ccc(NC(=O)COC(=O)c2ccc(Br)o2)cc1, the AC50 (Cytochrome P450 3A4) is reported as “inconclusive” and the AC50 (Cytochrome P450 1A2) is reported as 316 nM (inconclusive).

With Cn1c(=O)c(-c2ccccc2)nc2cnc(Oc3ccccc3)nc21 the AC50 (Cytochrome P450 2C9) was 12.6 µM (inconclusive) and the AC50 (Cytochrome P450 3A4) was “inconclusive”.

In the case of Cc1ccc(N(Cc2cc(O)nc3ccccc23)C(=O)CCl)c(C)c1, the CC50 (Vero [7]) is reported as 7.95 µM (active) and the IC50 (Vero [11]) is reported as > 25 µM (active).

— ChEMBL document CHEMBL1201862, “PubChem BioAssay data set” (2004)
